In patent US9534059B2, “TIKI inhibitors” (Children's Medical Center Corporation, priority 2012, dated 2017):

Key:
Tiki1 [1] = molecular target: T1, Tiki1 (Xenopus tropicalis, UniProt F6PTN1); assay: Whole mount in situ hybridization of organizer gene expression in MO-injected embryos (FIGS. 3D and 3F); type: in vivo
T1 construct: Thus the endogenous Tiki1 in the Organizer acts in both Wnt-producing and Wnt-responding cells; endogenous in cells; host or cells: Xenopus embryos (dorsal blastomeres / organizer)
T1 sequence (F6PTN1 24-480): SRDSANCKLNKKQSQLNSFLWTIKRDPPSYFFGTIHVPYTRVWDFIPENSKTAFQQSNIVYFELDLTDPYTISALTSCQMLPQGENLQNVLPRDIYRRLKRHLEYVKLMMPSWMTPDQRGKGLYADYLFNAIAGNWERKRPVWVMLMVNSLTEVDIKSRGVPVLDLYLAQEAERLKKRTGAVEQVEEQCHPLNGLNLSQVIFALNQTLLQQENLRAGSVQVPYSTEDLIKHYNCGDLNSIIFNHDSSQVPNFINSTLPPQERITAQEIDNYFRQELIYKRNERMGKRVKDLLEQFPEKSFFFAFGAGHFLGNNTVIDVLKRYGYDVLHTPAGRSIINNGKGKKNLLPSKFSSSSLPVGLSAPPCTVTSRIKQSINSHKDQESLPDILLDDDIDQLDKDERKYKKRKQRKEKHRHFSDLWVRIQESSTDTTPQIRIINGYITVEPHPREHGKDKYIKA
Protocol: (D) Tiki1 is required for the head organizer. Mid-gastrula embryos (stage 10.5-11) were examined by whole mount in situ hybridization.
(F) Tiki1MO reduces Goosecoid expression in prechordal plate at stage 13. 20 ng of control MO, Tiki1MO or Tiki1MO plus 50 pg of HA*Tiki1 mRNA were injected into two dorsal blastomeres at the 8-cell stage. Injected embryos were subjected to whole mount in situ hybridization with the Gsc probe at stage 13 (dorsal view with anterior up).
(§1) Procedures for embryo manipulation, reverse transcription PCR and in situ hybridization were performed as previously described (Tamai et al., 2000). The arrayed Xenopus tropicalis full length cDNAs (Voigt et al., 2005) were used for the screening as performed previously (Kato et al., 2002). cDNA pools (in the CS107 vector) that contain 96 independent clones were transcribed in vitro using SP6 polymerase, and the resulting mRNA pools were injected into the dorsal side of the embryo at 4-cell stage at the dose of 10 ng RNA/embryo. Injected embryos were scored at stage 30-31 for enlarged or diminished anterior development. The positive pools were divided into smaller pools and the same process was repeated till a single cDNA was identified.
(§2) The following morpholino oligonucleotides were used: Tiki1 MO: 5′-[…]-3′ (SEQ ID NO:33); standard control MO: 5′-[…]-3′ (SEQ ID NO:34) (Gene Tools, LLC). RT-PCR primers for XTiki1: Forward, 5′-[…]-3′(SEQ ID NO:35), Reverse, 5′-[…]-3′(SEQ ID NO:36); human TIKI1: Forward, 5′-[…]-3′(SEQ ID NO:37), Reverse, 5′-[…]-3′(SEQ ID NO:38); human TIKI2: Forward, 5′-[…]-3′(SEQ ID NO:39), Reverse, 5′-[…]-3′(SEQ ID NO:40).
(§3) Further, injection of Tiki1MO in two dorsal blastomeres of 8-cell stage embryos suppressed the expression of head organizer genes including Goosecoid (Gsc), Lim1, Otx2, and Dkk1 in gastrula stage embryos (stages 10.5-11) (FIG. 3D and Table 1). […] HA*Tiki1 mRNA injection rescued the effect of Tiki1MO on all head organizer genes examined (FIG. 3D and Table 1). […] Consistently, Tiki1 inhibited Xwnt8 posterizing effect when both were co-expressed dorsally via injected plasmids, which zygotically express Tiki1 and Xwnt8, respectively, after mid-blastula transition (FIG. 3H).

Tiki1 [2] = molecular target: T1, Tiki1; assay: Time course of Goosecoid expression in MO-injected embryos, whole mount in situ hybridization (FIG. 3G); type: in vivo
Protocol: (G) Tiki1MO reduced SO-specific Goosecoid expression at stage 11 but not prior to stage 10.5. Time course of Gsc expression was examined between stage 8.5 and 11. 20 ng of Tiki1MO or control MO was injected into two dorsal blastomeres at the 8-cell stage. After Injection embryos were cultured at 22° C. till indicated stages, and were subjected to whole mount in situ hybridization (vegetal view with dorsal up).
as §1, §2, §3

[3] = gene Chd, stage 10.5-11, 20 ng MO
[4] = gene Dkk1, stage 10.5-11, 20 ng MO
[5] = gene Gsc in prechordal plate, stage 13, 20 ng MO
[6] = gene Gsc, stage 10.5-11, 20 ng MO
[7] = gene Lim1, stage 10.5-11, 20 ng MO
[8] = gene Otx2, stage 10.5-11, 20 ng MO
[9] = gene Xnot, stage 10.5-11, 20 ng MO
[10] = gene Xnr3, stage 10.5-11, 20 ng MO

Substance: Tiki1 MO: morpholino antisense oligonucleotide against Tiki1, 5′-CCAAATGATTACCATCATAGCTCAG-3′ (SEQ ID NO:33) (all phosphorodiamidate morpholino (PMO))
- Whole embryos displaying change in gene expression: Chd Absent, Percentage (%) (Tiki1 [1]; [3]): 0%
- Whole embryos displaying change in gene expression: Chd NC (No Change), Percentage (%) (Tiki1 [1]; [3]): 64%
- Whole embryos displaying change in gene expression: Chd Reduced, Percentage (%) (Tiki1 [1]; [3]): 36%
- Whole embryos displaying change in gene expression: Dkk1 Absent, Percentage (%) (Tiki1 [1]; [4]): 25%
- Whole embryos displaying change in gene expression: Dkk1 NC (No Change), Percentage (%) (Tiki1 [1]; [4]): 35%
- Whole embryos displaying change in gene expression: Dkk1 Reduced, Percentage (%) (Tiki1 [1]; [4]): 40%
- Whole embryos displaying change in gene expression: Gsc st.13 Absent, Percentage (%) (Tiki1 [1]; [5]): 35%
- Whole embryos displaying change in gene expression: Gsc st.13 NC (No Change), Percentage (%) (Tiki1 [1]; [5]): 33%
- Whole embryos displaying change in gene expression: Gsc st.13 Reduced, Percentage (%) (Tiki1 [1]; [5]): 32%
- Whole embryos displaying change in gene expression: Gsc Absent, Percentage (%) (Tiki1 [1]; [6]): 0%
- Whole embryos displaying change in gene expression: Gsc NC (No Change), Percentage (%) (Tiki1 [1]; [6]): 34%
- Whole embryos displaying change in gene expression: Gsc Reduced, Percentage (%) (Tiki1 [1]; [6]): 66%
- Whole embryos displaying change in gene expression: Lim1 Absent, Percentage (%) (Tiki1 [1]; [7]): 28%
- Whole embryos displaying change in gene expression: Lim1 NC (No Change), Percentage (%) (Tiki1 [1]; [7]): 18%
- Whole embryos displaying change in gene expression: Lim1 Reduced, Percentage (%) (Tiki1 [1]; [7]): 54%
- Whole embryos displaying change in gene expression: Otx2 Absent, Percentage (%) (Tiki1 [1]; [8]): 7%
- Whole embryos displaying change in gene expression: Otx2 NC (No Change), Percentage (%) (Tiki1 [1]; [8]): 33%
- Whole embryos displaying change in gene expression: Otx2 Reduced, Percentage (%) (Tiki1 [1]; [8]): 60%
- Whole embryos displaying change in gene expression: Xnot Absent, Percentage (%) (Tiki1 [1]; [9]): 0%
- Whole embryos displaying change in gene expression: Xnot NC (No Change), Percentage (%) (Tiki1 [1]; [9]): 87%
- Whole embryos displaying change in gene expression: Xnot Reduced, Percentage (%) (Tiki1 [1]; [9]): 13%
- Whole embryos displaying change in gene expression: Xnr3 Absent, Percentage (%) (Tiki1 [1]; [10]): 0%
- Whole embryos displaying change in gene expression: Xnr3 NC (No Change), Percentage (%) (Tiki1 [1]; [10]): 93%
- Whole embryos displaying change in gene expression: Xnr3 Reduced, Percentage (%) (Tiki1 [1]; [10]): 7%
- Whole embryos displaying change in Goosecoid expression: Absent, Percentage (%) (Tiki1 [2]; stage 8.5, 20 ng MO): 0%
- Whole embryos displaying change in Goosecoid expression: NC (No Change), Percentage (%) (Tiki1 [2]; stage 8.5, 20 ng MO): 100%
- Whole embryos displaying change in Goosecoid expression: Reduced, Percentage (%) (Tiki1 [2]; stage 8.5, 20 ng MO): 0%
- Whole embryos displaying change in Goosecoid expression: Absent, Percentage (%) (Tiki1 [2]; stage 9.5, 20 ng MO): 13%
- Whole embryos displaying change in Goosecoid expression: NC (No Change), Percentage (%) (Tiki1 [2]; stage 9.5, 20 ng MO): 87%
- Whole embryos displaying change in Goosecoid expression: Reduced, Percentage (%) (Tiki1 [2]; stage 9.5, 20 ng MO): 0%
- Whole embryos displaying change in Goosecoid expression: Absent, Percentage (%) (Tiki1 [2]; stage 10, 20 ng MO): 15%
- Whole embryos displaying change in Goosecoid expression: NC (No Change), Percentage (%) (Tiki1 [2]; stage 10, 20 ng MO): 85%
- Whole embryos displaying change in Goosecoid expression: Reduced, Percentage (%) (Tiki1 [2]; stage 10, 20 ng MO): 0%
- Whole embryos displaying change in Goosecoid expression: Absent, Percentage (%) (Tiki1 [2]; stage 10.5, 20 ng MO): 5%
- Whole embryos displaying change in Goosecoid expression: NC (No Change), Percentage (%) (Tiki1 [2]; stage 10.5, 20 ng MO): 80%
- Whole embryos displaying change in Goosecoid expression: Reduced, Percentage (%) (Tiki1 [2]; stage 10.5, 20 ng MO): 15%
- Whole embryos displaying change in Goosecoid expression: Absent, Percentage (%) (Tiki1 [2]; stage 11, 20 ng MO): 48%
- Whole embryos displaying change in Goosecoid expression: NC (No Change), Percentage (%) (Tiki1 [2]; stage 11, 20 ng MO): 27%
- Whole embryos displaying change in Goosecoid expression: Reduced, Percentage (%) (Tiki1 [2]; stage 11, 20 ng MO): 25%
